Assay results published in publication PMC10830420, “Structures, functions and adaptations of the human LINE-1 ORF2 protein” (Nature, 2023).

Experiments:
[1] = biological target: T1, ORF2p core (Homo sapiens, UniProt O00370); experiment: Homogeneous time-resolved fluorescence (HTRF) ORF2p RT assay; format: biochemical; details: HTRF; NRTI NTPs
T1 construct: His6-MBP-3C-ORF2p (238-1061, ORFeus-Hs) in pET41; His6-MBP (3C protease site) (N, cleaved yes); made in house; host or cells: E. coli
Description: ORF2p core was preincubated with a template:primer containing a single site for the incorporation of a given nucleotide analogue. The primer/template sequence shown in the panel a illustrates the case of single incorporation of 3TC, with a single G for incorporation; the incoming template sequence for entecavir and carbovir has a single C, and for d4T a single A, each at position labeled “N”. Reactions were incubated for one minute at 37 °C with a 100 nM dNTP mixture and increasing concentrations of listed inhibitors. IC50 index, fold = IC50 (drug, µM) ÷ [dNTP] […] Fluorescein-labeled dNTPs (here, uracil-TP) are incorporated by ORF2p into a biotinylated primer, here shown against a poly(A) template. Detection is then achieved using FRET with a terbium cryptate labeled streptavidin, and the time-resolved technique and time-delayed emission from terbium cryptate reduces background from other fluorescent chemicals in the mix. In the presence of ORF2p RT inhibitors (RTIs), base incorporation is stopped and FRET signal is lost. […]
ORF2p reverse transcriptase activity assays […]
For HTRF RT assays157, 25 nM ORF2p core and 12. 5 nM t em plat e: primer was incubated at 25°C for 60 minutes
with 10 nM of fluorescein- 12- dUTP (Thermo), 1 µM each (dATP,dCTP,dGTP), and test compound in a 15 µL
reaction with buffer containing 50 mM Tris-HCl, 50 mM KCl, 10 mM MgCl2, 10 mM DTT, pH 8.1, and 1% final

[2] = system: interferon production in THP1 cells; experiment: Interferon reporter assay in THP1 cells (secreted luciferase); format: cell-based, human; details: 50 µM; THP1 cells, 1 µM decitabine
Description: Culture Collection ( AT CC); THP1-Dual and THP1- Dual KO-TREX1 cells were from InvivoGen. All cell lines were maintained at 37 °C and 5% CO2 and validated and tested for mycoplasma. All plasmids and affinity reagents are described in Supplementary Tables 4-5 , respectively and available from Addgene at https://www.addgene.org/browse/article/28243724/. […]
Interferon reporter assay in THP1 cells
The type I interferon response was evaluated using THP1 -Dual and THP1-Dual KO-TREX1 cells (InvivoGen), which secrete a Lucia luciferase reporter gene under control of an interferon- responsive promoter. THP1-Dual KO-TREX1 cell were generated by stable biallelic knock-out of the TREX1 gene. Cell were treated with a dose titration of test compound in the presence of 1 µM 5- aza-2ʹ-deoxycytidine (decitabine, Sigma, #189825), which de- represses LINE-1121. Type 1 Interferon and cell viability were assessed after five days of treatment. QUANTI-LUC solution containing stabilizer was added to the cell supernatant and luminescence was measured on a p la t e reader, and cells were assessed for cell viability using CellTiter-Glo (Promega, #G9683) according to the manufacturer’s instructions.
LINE-1 dual luciferase retrotransposition assay
To assess the potency of inhibiting LINE-1 retrotransposon, a stable clonal dual luciferase L1 reporter cell line was generated and reported as described130,133 in the HeLa Tet-On 3G cell line (Takara, ). SB100x161 was used to integrate pRT006.2, a vector similar to pYX056 130 , which contains a bi-directional Tet-On promoter expressing both control Renilla luciferase and LINE-1 ORFeus-Hs Firefly luciferase antisense intron (AI) r epor t er 79,162. A single cell clone was selected with the highest doxycycline-induced luciferase signal vs baseline. Cells were mixed with compounds and induced for reporter expression with 500 ng/mL doxycycline (Sigma, #D9891) for 72 hours. Luminescence was measured using the Dual-Glo Luciferase Assay System (Promega, #E2940) following the manufacturer’s instructions, and the ratio of Firefly to Renilla Luciferase activity was used to measure […]
Telomerase activity assay
The human telomerase assay was performed with telomerase in MCF- 7 cell lysates using the Telo TAGGG Telomerase PCR ELISAplus kit (Roche). Test compounds (NTPs) were serially diluted in water, mixed with 0.2 µg of M CF- 7 lysate, and pre- incubated at room temperature for 15 minutes. Then the reaction was carried out for 30 minutes, amplified using PCR, and visualized colorimetrically per t he manufacturer’s instructions.
Cells were lysed in ice cold RIPA buffer containing 1x protease inhibitor tablet (Thermo), centrifuged for 10 minutes, and clarified lysates were quantified by BCA assay. […]

With Cc1cn([C@H]2C=C[C@@H](CO)O2)c(=O)[nH]c1=O [d4T, stavudine] the IC50 [1] was < 0.01 µM and the “baseline and decitabine-induced IFN production” value [2] was “reduced”.
